Experimental findings from paper PMC8286840, “Identifying SARS-CoV-2 antiviral compounds by screening for small molecule inhibitors of Nsp3 papain-like protease” (Biochemical Journal, 2021) are described below.

Assay [1] deals with T1, SARS-CoV-2 PLpro (nsp3 1564–1878) (Severe acute respiratory syndrome coronavirus 2, UniProt P0DTD1). Kind of assay: biochemical. Also noted: FRET-quenched peptide (Pro3) cleavage by PLpro, 10 min pre-incubation, slope over 20 min, normalised to no-compound control. Particulars: read-out: % of control remaining.
The target in assay [2] is T1, SARS-CoV-2 PLpro (nsp3 1564–1878). In words: biochemical. More on the design: FRET-quenched peptide (Pro3) cleavage by PLpro, 10 min pre-incubation, slope over 20 min, normalised to no-compound control. As to conditions: read-out: % of control remaining. The source holds these as a separate data set.

Where a name gives a salt, the structure may show the parent alone. Read-outs that look alike come from different tables or passages of the source.

With `Nc1ccn([C@@H]2O[C@H](CO)[C@@H](O)C2(F)F)c(=O)n1` [Gemcitabine (hydrochloride)], the remaining activity at 3.75 µM in assay [1] (Well no.=8056, high concentration screen) turned out to be 100%. Moreover, in assay [2] (Well no.=8056, low concentration screen), the remaining activity at 1.25 µM amounted to 96.9%.

Turning to `Nc1ccn([C@@H]2O[C@H](CO)[C@@H](O)C2(F)F)c(=O)n1` [Gemcitabine HCl (Gemzar)], the remaining activity at 3.75 µM in assay [1] (Well no.=5059, high concentration screen) came to 107%. The remaining activity at 1.25 µM in assay [2] (Well no.=5059, low concentration screen) was determined as 104%.

With `Nc1ccn([C@@H]2O[C@H](CO)[C@@H](O)C2(F)F)c(=O)n1` [Gemcitabine], the remaining activity at 3.75 µM was 98.5% in assay [1] (Well no.=1906, high concentration screen) and 95% in assay [1] (Well no.=8054, high concentration screen). For the same molecule, the remaining activity at 1.25 µM in assay [2] (Well no.=1906, low concentration screen) amounted to 97.8%; in assay [2] (Well no.=8054, low concentration screen), 92.7%.

`Cc1ccc(C)c(OCCCC(C)(C)C(=O)O)c1` [Gemfibrozil]: the remaining activity at 3.75 µM in assay [1] (Well no.=2174, high concentration screen) worked out at 98.7%. For the same molecule, the remaining activity at 1.25 µM in assay [2] (Well no.=2174, low concentration screen) came to 95.4%.

For `COC(=O)C1=CO[C@@H](O)[C@@H]2C(CO)=CC[C@H]12` [Genipin], in assay [1] (Well no.=5276, high concentration screen), the remaining activity at 3.75 µM was 89.2%. Also, the remaining activity at 1.25 µM in assay [2] (Well no.=5276, low concentration screen) was 95.9%.

Regarding `COC(=O)C1=CO[C@@H](O[C@@H]2O[C@H](CO)[C@@H](O)[C@H](O)[C@H]2O)[C@@H]2C(CO)=CC[C@H]12` [Geniposide], the remaining activity at 3.75 µM in assay [1] (Well no.=5206, high concentration screen) stood at 97.9%. The remaining activity at 1.25 µM in assay [2] (Well no.=5206, low concentration screen) was found to be 102%.

As to `O=C(O)C1=CO[C@@H](O[C@@H]2O[C@H](CO)[C@@H](O)[C@H](O)[C@H]2O)[C@@H]2C(CO)=CC[C@H]12` [Geniposidic acid], in assay [1] (Well no.=5236, high concentration screen), the remaining activity at 3.75 µM amounted to 95.9%. Moreover, in assay [2] (Well no.=5236, low concentration screen), the remaining activity at 1.25 µM turned out to be 95.4%.

As for `O=c1c(-c2ccc(O)cc2)coc2cc(O)cc(O)c12` [Genistein - 5,7-Dihydroxy-3-(4-hydroxyphenyl)-4H-1-benzopyran-4-one], in assay [1] (Well no.=2342, high concentration screen), the remaining activity at 3.75 µM was found to be 95.4%. In assay [2] (Well no.=2342, low concentration screen), the remaining activity at 1.25 µM is 95.4%.

Take `O=c1c(-c2ccc(O)cc2)coc2cc(O)cc(O)c12` [Genistein]: the remaining activity at 3.75 µM in assay [1] (Well no.=573, high concentration screen) was 94%; in assay [1] (Well no.=3315, high concentration screen), 101%; in assay [1] (Well no.=3947, high concentration screen), 98.5%; in assay [1] (Well no.=6492, high concentration screen), 103%. For the same molecule, the remaining activity at 1.25 µM was determined as 95% in assay [2] (Well no.=573, low concentration screen); 94.8% in assay [2] (Well no.=3315, low concentration screen); 98.6% in assay [2] (Well no.=3947, low concentration screen); 103% in assay [2] (Well no.=6492, low concentration screen).

For `O=c1c(-c2ccc(O)cc2)coc2cc(O[C@@H]3O[C@H](CO)[C@@H](O)[C@H](O)[C@H]3O)cc(O)c12` [Genistin], the remaining activity at 3.75 µM in assay [1] (Well no.=3213, high concentration screen) amounted to 97.9%. The remaining activity at 1.25 µM in assay [2] (Well no.=3213, low concentration screen) worked out at 99.7%.

Regarding `O=C(O)c1cc(O)ccc1O` [Gentisic acid], in assay [1] (Well no.=3955, high concentration screen), the remaining activity at 3.75 µM worked out at 100%. For the same molecule, the remaining activity at 1.25 µM in assay [2] (Well no.=3955, low concentration screen) worked out at 110%.

As for `COc1cc(-c2oc3cc(O)ccc3c(=O)c2O)ccc1O` [Geraldol], the remaining activity at 3.75 µM in assay [1] (Well no.=3512, high concentration screen) came to 102%. The remaining activity at 1.25 µM in assay [2] (Well no.=3512, low concentration screen) is 98.4%.

`CC(=O)CC/C=C(\C)CC/C=C(\C)CC/C=C(\C)CCC=C(C)C` [Geranylgeranylacetone]: the remaining activity at 3.75 µM in assay [1] (Well no.=6123, high concentration screen) is 95.3%. In assay [2] (Well no.=6123, low concentration screen), the remaining activity at 1.25 µM worked out at 96.8%.

Turning to `C#C[C@]1(O)C=C[C@H]2[C@@H]3CCC4=CC(=O)CC[C@@H]4[C@H]3CC[C@@]21CC` [Gestodene], the remaining activity at 3.75 µM in assay [1] (Well no.=5260, high concentration screen) is 96.8%. In assay [2] (Well no.=5260, low concentration screen), the remaining activity at 1.25 µM was 93.5%.

Turning to `C#C[C@]1(O)CC[C@H]2[C@@H]3CCC4=CC(=O)CCC4=C3C=C[C@@]21CC` [Gestrinone], the remaining activity at 3.75 µM in assay [1] (Well no.=1792, high concentration screen) was found to be 99.3%. Moreover, the remaining activity at 1.25 µM in assay [2] (Well no.=1792, low concentration screen) is 101%.

Turning to `Oc1cc(O)c(Cl)cn1` [Gimeracil], the remaining activity at 3.75 µM in assay [1] (Well no.=5056, high concentration screen) came out at 104%. Moreover, the remaining activity at 1.25 µM in assay [2] (Well no.=5056, low concentration screen) was 101%.

Take `CCCCC[C@H](O)CC(=O)CCc1ccc(O)c(OC)c1` [Gingerol]: the remaining activity at 3.75 µM in assay [1] (Well no.=3319, high concentration screen) worked out at 101%. The remaining activity at 1.25 µM in assay [2] (Well no.=3319, low concentration screen) amounted to 97%.

Regarding `C[C@@H]1C(=O)O[C@H]2C[C@@]34[C@H]5C[C@@H](C(C)(C)C)[C@]36[C@@H](OC(=O)[C@@H]6O)O[C@@]4(C(=O)O5)[C@]21O` [Ginkgolide A], the remaining activity at 3.75 µM in assay [1] (Well no.=1908, high concentration screen) was found to be 96.1%; in assay [1] (Well no.=3613, high concentration screen) it was 104%. Also, the remaining activity at 1.25 µM worked out at 98.7% in assay [2] (Well no.=1908, low concentration screen) and 106% in assay [2] (Well no.=3613, low concentration screen).

As for `C[C@@H]1C(=O)O[C@H]2[C@H](O)[C@@]34[C@H]5C[C@@H](C(C)(C)C)[C@]36[C@@H](OC(=O)[C@@H]6O)O[C@@]4(C(=O)O5)[C@@]12O` [Ginkgolide B], the remaining activity at 3.75 µM in assay [1] (Well no.=3321, high concentration screen) was found to be 101%; in assay [1] (Well no.=6484, high concentration screen) it was 92.7%. Also, the remaining activity at 1.25 µM in assay [2] (Well no.=3321, low concentration screen) worked out at 97.9%; in assay [2] (Well no.=6484, low concentration screen), 95.6%.

As to `CC(C)=CCC[C@](C)(O[C@@H]1O[C@H](CO[C@@H]2O[C@@H](CO)[C@H](O)[C@H]2O)[C@@H](O)[C@H](O)[C@H]1O)[C@H]1CC[C@]2(C)[C@@H]1[C@H](O)C[C@@H]1[C@@]3(C)CC[C@H](O[C@@H]4O[C@H](CO)[C@@H](O)[C@H](O)[C@H]4O[C@@H]4O[C@H](CO)[C@@H](O)[C@H](O)[C@H]4O)C(C)(C)[C@@H]3CC[C@]12C` [Ginsenoside Rc], in assay [1] (Well no.=6436, high concentration screen), the remaining activity at 3.75 µM was determined as 92.6%. Moreover, the remaining activity at 1.25 µM in assay [2] (Well no.=6436, low concentration screen) is 93.3%.

With `CC(C)=CCC[C@](C)(O)[C@H]1CC[C@]2(C)[C@@H]1[C@H](O)C[C@@H]1[C@@]3(C)CC[C@H](O)C(C)(C)[C@@H]3[C@@H](O[C@@H]3O[C@H](CO)[C@@H](O)[C@H](O)[C@H]3O)C[C@]12C` [Ginsenoside Rh1], in assay [1] (Well no.=6546, high concentration screen), the remaining activity at 3.75 µM is 93.7%. Besides, in assay [2] (Well no.=6546, low concentration screen), the remaining activity at 1.25 µM is 98.2%.

With `CC(C)=CCC[C@](C)(O)[C@H]1CC[C@]2(C)[C@@H]1[C@H](O)C[C@@H]1[C@@]3(C)CC[C@H](O[C@@H]4O[C@H](CO)[C@@H](O)[C@H](O)[C@H]4O)C(C)(C)[C@@H]3CC[C@]12C` [Ginsenoside Rh2], in assay [1] (Well no.=6590, high concentration screen), the remaining activity at 3.75 µM was 102%. For the same molecule, the remaining activity at 1.25 µM in assay [2] (Well no.=6590, low concentration screen) amounted to 98.4%.

In the case of `C[C@]12CC[C@H](O)C[C@H]1CC[C@@H]1[C@@H]2CC[C@]2(C)[C@@H](C3=CC(=O)OC3)[C@@H](O)C[C@]12O` [Gitoxigenin], in assay [1], the remaining activity at 3.75 µM turned out to be 104%. Besides, the remaining activity at 1.25 µM in assay [2] came to 105%.

As for `CC(C)(C)[C@@H]1NC(=O)O[C@@H]2CCC[C@H]2OC/C=C/C(F)(F)c2nc3ccccc3nc2O[C@@H]2C[C@@H](C(=O)N[C@]3(C(=O)NS(=O)(=O)C4(C)CC4)C[C@H]3C(F)F)N(C2)C1=O` [Glecaprevir], in assay [1] (Well no.=8512, high concentration screen), the remaining activity at 3.75 µM was found to be 93.8%. Also, the remaining activity at 1.25 µM in assay [2] (Well no.=8512, low concentration screen) came out at 103%.

For `COc1ccc(Cl)cc1C(=O)NCCc1ccc(S(=O)(=O)NC(=O)NC2CCCCC2)cc1` [Glibenclamide], the remaining activity at 3.75 µM in assay [1] (Well no.=475, high concentration screen) was determined as 102%. The remaining activity at 1.25 µM in assay [2] (Well no.=475, low concentration screen) worked out at 101%.

For `CCC1=C(C)CN(C(=O)NCCc2ccc(S(=O)(=O)NC(=O)N[C@H]3CC[C@H](C)CC3)cc2)C1=O` [Glimepiride], the remaining activity at 3.75 µM in assay [1] (Well no.=2178, high concentration screen) is 97%. Moreover, the remaining activity at 1.25 µM in assay [2] (Well no.=2178, low concentration screen) came out at 96.4%.
